For 37 molecules, EC50 results are on record in patent US8865756B2, “Inhibitors of HCV NS5A” (Presidio Pharmaceuticals, Inc., priority 2008, dated 2014).

Molecules are shown by their SMILES.

In this experiment the test system is HCV 1b_Huh-Luc/Neo-ET cell line persistently expressing a bicistronic genotype 1b replicon in Huh 7 cells. As to the kind of experiment: HCV replicon assay (luciferase readout). It is filed as cell-based. The conditions noted are these: Hepatitis C virus, Huh-7, 72 h, read-out: Inhibition of HCV genotype 1b. The procedure:
Biological activity of the compounds of the invention was determined using an HCV replicon assay. The HCV 1b_Huh-Luc/Neo-ET cell line persistently expressing a bicistronic genotype 1b replicon in Huh 7 cells was obtained from ReBLikon GMBH. This cell line was used to test compound inhibition using luciferase enzyme activity readout as a measurement of compound inhibition of replicon levels.
On Day 1 (the day after plating), each compound is added in triplicate to the cells. Plates incubated for 72 h prior to running the luciferase assay. Enzyme activity was measured using a Bright-Glo Kit (cat. number E2620) manufactured by Promega Corporation. The following equation was used to generate a percent control value for each compound. % Control=(Average Compound Value/Average Control)*100
The EC50 value was determined using GraphPad Prism and the following equation: Y=Bottom+(Top−Bottom)/(1+10^((Log IC50−X)*HillSlope))
EC50 values of compounds are determined several times in the replicon assay.
Example compounds of the disclosed invention are illustrated in Tables 1-14 attached as appendices. The tables show inhibitory activity of many of the example compounds with respect to HCV 1b. […] The tables further provide mass spectrometry results for the synthesized example compounds.

Regarding `COC(=O)N[C@@H](C(=O)N1CCC[C@H]1c1ncc(-c2ccc(C#Cc3ccc(-c4cnc([C@@H]5CCCN5C(=O)[C@H](NC(=O)N5CCC[C@H]5C)c5ccccc5)[nH]4)cc3)cc2)[nH]1)c1ccccc1` [Compound 262], the EC50 was below 1 nM. `COC(=O)N[C@@H]1CCC[C@H]1C(=O)N1CCC[C@H]1c1ncc(-c2ccc(C#Cc3ccc4nc([C@@H]5CCCN5C(=O)[C@@H]5CCC[C@H]5NC(=O)OC)[nH]c4c3)cc2)[nH]1` [Compound 1058]: the EC50 was in the range of 10 to 999 nM. Consider `COC(=O)NC(C(=O)N1CCC[C@H]1c1ncc(-c2ccc(C#Cc3ccc(-c4cnc([C@@H]5CCCN5C(=O)[C@@H](NC(=O)OC)C(C)C)[nH]4)cc3)cc2)[nH]1)[C@@H](C)OC` (stereo partly shown) [Compound 972], for which the EC50 was below 1 nM.

Take `COC(=O)N[C@H](C(=O)N1C[C@H](F)C[C@H]1c1ncc(-c2ccc(C#Cc3ccc4nc([C@@H]5CCCN5C(=O)[C@@H](NC(=O)OC)C(C)C)[nH]c4c3)cc2)[nH]1)C(C)C` [Compound 1040]: the EC50 was below 1 nM. For `CCN(CC)[C@@H](C(=O)N1CCC[C@H]1c1ncc(-c2ccc(C#Cc3ccc(-c4cnc([C@@H]5CCCN5C(=O)[C@H](NS(C)(=O)=O)c5ccccc5)[nH]4)cc3)cc2)[nH]1)c1ccccc1` [Compound 229] the value was below 1 nM; for `CC(C)[C@@H](NC(=O)OC(C)(C)C)C(=O)N1CCC[C@H]1C(=O)Nc1ccc(C#Cc2cnc([C@@H]3CCCN3C(=O)[C@H](NC(=O)OC(C)(C)C)C(C)C)[nH]2)cc1` [Compound 114], 10 to 999 nM. On to `CC(C)[C@@H](NC(=O)OC(C)(C)C)C(=O)N1CCC[C@H]1c1ncc(C#Cc2ccc(C#Cc3cnc([C@@H]4CCCN4C(=O)[C@H](NC(=O)OC(C)(C)C)C(C)C)[nH]3)cc2)[nH]1` [Compound 301], for which the EC50 is above 1000 nM. As for `CC(C)(C)OC(=O)N[C@@H](C(=O)N1CCC[C@H]1c1ncc(C#Cc2ccc(C#Cc3cnc([C@@H]4CCCN4C(=O)[C@H](NC(=O)OC(C)(C)C)c4ccccc4)[nH]3)cc2)[nH]1)c1ccccc1` [Compound 300], the EC50 is below 1 nM. `COC(=O)N[C@@H](C(=O)N1CCC[C@H]1c1ncc(C#Cc2ccc3nc([C@@H]4CCCN4C(=O)[C@H](NC(=O)OC)c4ccccc4)[nH]c3c2)[nH]1)c1ccccc1` [Compound 700]: the EC50 was below 1 nM. For `C[C@H](NC(=O)[C@@H]1CCCN1C(=O)[C@H](NC(=O)C1CC1)c1ccccc1)c1ccc(C#Cc2ccc(-c3cnc([C@@H]4CCCN4C(=O)[C@H](NC(=O)C4CC4)c4ccccc4)[nH]3)cc2)cc1` [Compound 191], the EC50 was below 1 nM. Consider `COC(=O)N[C@H](C(=O)N1CCC[C@H]1c1nc2ccc(C#Cc3ccc(-c4cnc([C@@H]5CCCN5C(=O)[C@H](NC(=O)OC)c5ccccc5)[nH]4)cc3)cc2[nH]1)C(C)C` [Compound 1022], for which the EC50 is below 1 nM. For the molecule `COC(=O)N[C@H](C(=O)N1CCC[C@H]1c1ncc(C#Cc2ccc(-c3ccc(-c4cnc([C@@H]5CCCN5C(=O)[C@@H](NC(=O)OC)C(C)C)[nH]4)cc3)cc2)[nH]1)C(C)C` [Compound 756], the EC50 is below 1 nM. Then `COC(=O)N[C@H](C(=O)N1CCCC[C@H]1c1ncc(-c2ccc(C#Cc3ccc4nc([C@@H]5CCCN5C(=O)[C@@H](NC(=O)OC)C(C)C)[nH]c4c3)cc2)[nH]1)C(C)C` [Compound 1032], with below 1 nM; and `O=C(N[C@@H](C(=O)N1CCC[C@H]1c1ncc(-c2ccc(C#Cc3ccc(-c4cnc([C@@H]5CCCN5C(=O)[C@@H](c5ccccc5)N5CCOCC5)[nH]4)cc3)cc2)[nH]1)c1ccccc1)C1CC1` [Compound 237], with below 1 nM; and `COC(=O)N[C@H](C(=O)N1CCC[C@H]1c1ncc(-c2ccc(C#Cc3ccc4nc([C@@H]5CCCN5C(=O)[C@@H](NC(=O)OC)C5CC5)[nH]c4c3)cc2)[nH]1)C1CC1` [Compound 1029], with below 1 nM. For `COC(=O)N[C@H](C(=O)N1CCC[C@H]1c1ncc(-c2ccc(C#Cc3ccc(-c4cnc([C@@H]5CCCN5C(=O)[C@@H](c5ccccc5)N5CCC(C)(O)CC5)[nH]4)cc3)cc2)[nH]1)C(C)C` [Compound 970] the value was below 1 nM; for `O=C([C@@H](c1ccccc1)N1CCOCC1)N1CCC[C@H]1c1ncc(-c2ccc(C#Cc3ccc(-c4cnc([C@@H]5CCCN5C(=O)[C@@H](c5ccccc5)N5CCOCC5)[nH]4)cc3)cc2)[nH]1` [Compound 184], below 1 nM; for `COC(=O)N[C@H](C(=O)N1CCC[C@H]1c1ncc(-c2ccc(C#Cc3ccc(-c4cnc([C@@H]5CCCN5C(=O)[C@@H](C(C)C)N(C)C)[nH]4)cc3)cc2)[nH]1)C(C)C` [Compound 954], 1 to 9.9 nM. On to `C[C@@H](NC(=O)C1CC1)C(=O)N1CCC[C@H]1c1ncc(C#Cc2ccc(-c3cnc([C@@H]4CCCN4C(=O)[C@@H](C)NC(=O)C4CC4)[nH]3)cc2)[nH]1` [Compound 111], for which the EC50 fell in the range of 1 to 9.9 nM. For `CS(=O)(=O)N[C@@H](C(=O)N1CCC[C@H]1c1ncc(-c2ccc(C#Cc3ccc(-c4cnc([C@@H]5CCCN5C(=O)[C@@H](c5ccccc5)N5CCCCC5)[nH]4)cc3)cc2)[nH]1)c1ccccc1` [Compound 231] the value was below 1 nM; for `CC(C)[C@@H](NC(=O)C1CC1)C(=O)N1CCC[C@H]1c1ncc(C#Cc2ccc(-c3cnc([C@@H]4CCCN4C(=O)[C@H](NC(=O)C4CC4)C(C)C)[nH]3)cc2)[nH]1` [Compound 107], 1 to 9.9 nM. Then `COC(=O)N[C@H](C(=O)N1CCC[C@H]1c1nc(-c2cnc3cc(C#Cc4cnc([C@@H]5CCCN5C(=O)[C@@H](NC(=O)OC)C(C)C)[nH]4)ccc3c2)c[nH]1)C(C)C` [Compound 1076], with below 1 nM. On to `COC(=O)N[C@H](C(=O)N1CCC[C@H]1c1ncc(-c2ccc(C#Cc3ccc(-c4cnc([C@@H]5CCCN5C(=O)[C@@H](c5ccccc5)N5CCCC5)[nH]4)cc3)cc2)[nH]1)C(C)C` [Compound 984], for which the EC50 is below 1 nM. With `COC(=O)N[C@H](C(=O)N1CCSC[C@H]1c1ncc(-c2ccc(C#Cc3ccc4nc([C@@H]5CCCN5C(=O)[C@@H](NC(=O)OC)C(C)C)[nH]c4c3)cc2)[nH]1)C(C)C` [Compound 1062], the EC50 was below 1 nM. As to `O=C(N[C@@H](C(=O)N1CCC[C@H]1c1ncc(-c2ccc(C#Cc3ccc(-c4cnc([C@@H]5CCCN5C(=O)[C@H](NC(=O)N5CCCC5)c5ccccc5)[nH]4)cc3)cc2)[nH]1)c1ccccc1)N1CCCC1` [Compound 249], the EC50 is below 1 nM. In the case of `COC(=O)N[C@@H](C(=O)N1CCC[C@H]1c1ncc(-c2ccc(C#Cc3ccc(C(=O)NC[C@@H]4CCCN4C(=O)[C@@H](c4ccccc4)N4CCCCC4)cc3)cc2)[nH]1)c1ccccc1` [Compound 233], the EC50 was below 1 nM. For the molecule `CCN(CC)[C@@H](C(=O)N1CCC[C@H]1c1ncc(-c2ccc(C#Cc3ccc(-c4cnc([C@@H]5CCCN5C(=O)[C@@H](c5ccccc5)N(CC)CC)[nH]4)cc3)cc2)[nH]1)c1ccccc1` [Compound 173], the EC50 was below 1 nM. As for `COC(=O)N[C@H](C(=O)N(C)[C@@H](C)c1ncc(-c2ccc(C#Cc3ccc(-c4cnc([C@@H]5CCCN5C(=O)[C@@H](NC(=O)OC)C(C)C)[nH]4)cc3)cc2)[nH]1)C(C)C` [Compound 267], the EC50 is below 1 nM. `CC(C)[C@@H](NC(=O)C1CC1)C(=O)N1CCC[C@H]1C(=O)NCc1ccc(C#Cc2cnc([C@@H]3CCCN3C(=O)[C@H](NC(=O)C3CC3)C(C)C)[nH]2)cc1` [Compound 122]: the EC50 lay in the range of 1 to 9.9 nM.

Regarding `COC(=O)N[C@@H](CC(C)C)C(=O)N1CCC[C@H]1c1ncc(-c2ccc(C#Cc3ccc4nc([C@@H]5CCCN5C(=O)[C@H](CC(C)C)NC(=O)OC)[nH]c4c3)cc2)[nH]1` [Compound 1067], the EC50 is below 1 nM. On to `CO[C@@H](C(=O)N1CCC[C@H]1c1ncc(-c2ccc(C#Cc3ccc(-c4cnc([C@@H]5CCCN5C(=O)[C@H](OC)c5ccccc5)[nH]4)cc3)cc2)[nH]1)c1ccccc1` [Compound 172], for which the EC50 was below 1 nM. Take `COC(=O)N[C@@H](C(=O)N1CCC[C@H]1c1ncc(-c2ccc(C#Cc3ccc(-c4cnc([C@@H]5CCCN5C(=O)[C@@H](c5ccccc5)N5CCCC5)[nH]4)cc3)cc2)[nH]1)c1ccccc1` [Compound 178]: the EC50 was below 1 nM. For the molecule `COC(=O)N[C@H](C(=O)N1CCC[C@H]1c1ncc(-c2cc(C)c(C#Cc3ccc4nc([C@@H]5CCCN5C(=O)[C@@H](NC(=O)OC)C(C)C)[nH]c4c3)c(C)c2)[nH]1)C(C)C` [Compound 1060], the EC50 is below 1 nM. Then `COC[C@H]1CCCN1C(=O)N[C@@H](C(=O)N1CCC[C@H]1c1ncc(-c2ccc(C#Cc3ccc(-c4cnc([C@@H]5CCCN5C(=O)[C@H](NC(=O)OC)c5ccccc5)[nH]4)cc3)cc2)[nH]1)c1ccccc1` [Compound 259], with below 1 nM; and `COC(=O)N[C@@H](Cc1ccccc1)C(=O)N1CCC[C@H]1c1ncc(-c2ccc(C#Cc3ccc4nc([C@@H]5CCCN5C(=O)[C@H](Cc5ccccc5)NC(=O)OC)[nH]c4c3)cc2)[nH]1` [Compound 1045], with below 1 nM. Then `O=C(N[C@@H](C(=O)N1CCC[C@H]1C(=O)NCc1ccc(C#Cc2cnc([C@@H]3CCCN3C(=O)[C@H](NC(=O)C3CC3)c3ccccc3)[nH]2)cc1)c1ccccc1)C1CC1` [Compound 121], with below 1 nM; and `C[C@@H](NC(=O)[C@@H]1CCCN1C(=O)[C@H](NC(=O)C1CC1)c1ccccc1)c1ccc(C#Cc2ccc(-c3cnc([C@@H]4CCCN4C(=O)[C@H](NC(=O)C4CC4)c4ccccc4)[nH]3)cc2)cc1` [Compound 168], with below 1 nM.
